Measurements as given in the supplement of paper PMC4862054.

Key:
Conditions in all cases: incubation time: 72 h
CAL-85-1 [1] = assay: normalised response (% of control), CellTox Green; higher = less cell death (100 = DMSO, 0 = benzethonium chloride kill control)
Method in brief: (§1)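 Plates were normalised with 0.1 % DMSO as 100 and a positive kill control as 0. Breast cancer cell lines in 20 µl suspension had been seeded into 384-well plates with compound at 5 concentrations in 10-fold steps over a compound-specific 10,000-fold range, incubated 72 h, and read for CellTox Green fluorescence (485/520 nm) followed by CellTiter-Glo luminescence. Each value is the normalised signal at a single concentration.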

MDA-MB-436 [2] = assay: as above
Method in brief: as §1

HCC1599 [3] = assay: as above
Method in brief: as §1

CAL-148 [4] = assay: as above
Method in brief: as §1

MDA-MB-468 [5] = assay: as above
Method in brief: as §1

HCC1937 [6] = assay: as above
Method in brief: as §1

HCC1143 [7] = assay: as above
Method in brief: as §1

CAL-120 [8] = assay: as above
Method in brief: as §1

BT-474 [9] = assay: as above
Method in brief: as §1

MFM-223 [10] = assay: as above
Method in brief: as §1

CAL-51 [11] = assay: as above
Method in brief: as §1

HDQ-P1 [12] = assay: as above
Method in brief: as §1

Hs578T [13] = assay: as above
Method in brief: as §1

BT-549 [14] = assay: as above
Method in brief: as §1

MDA-MB-231 [15] = assay: as above
Method in brief: as §1

DU-4475 [16] = assay: as above
Method in brief: as §1

MDA-MB-453 [17] = assay: as above
Method in brief: as §1

CAL-85-1 [18] = assay: normalised response (% of control), CellTiter-Glo; higher = more viable cells (100 = DMSO, 0 = benzethonium chloride kill control)
Method in brief: as §1

MDA-MB-436 [19] = assay: as above
Method in brief: as §1

HCC1599 [20] = assay: as above
Method in brief: as §1

CAL-148 [21] = assay: as above
Method in brief: as §1

MDA-MB-468 [22] = assay: as above
Method in brief: as §1

HCC1937 [23] = assay: as above
Method in brief: as §1

HCC1143 [24] = assay: as above
Method in brief: as §1

CAL-120 [25] = assay: as above
Method in brief: as §1

BT-474 [26] = assay: as above
Method in brief: as §1

MFM-223 [27] = assay: as above
Method in brief: as §1

CAL-51 [28] = assay: as above
Method in brief: as §1

HDQ-P1 [29] = assay: as above
Method in brief: as §1

SK-BR-3 = assay: as above
Method in brief: as §1

Hs578T [30] = assay: as above
Method in brief: as §1

BT-549 [31] = assay: as above
Method in brief: as §1

MDA-MB-231 [32] = assay: as above
Method in brief: as §1

DU-4475 [33] = assay: as above
Method in brief: as §1

MCF-10A [34] = assay: as above
Method in brief: as §1

MDA-MB-453 [35] = assay: as above
Method in brief: as §1

MCF-10A [36] = assay: normalised response (% of control), CellTox Green; higher = less cell death (100 = DMSO, 0 = benzethonium chloride kill control)
Method in brief: as §1

| Structure (SMILES) | normalised response (CAL-85-1 [1]) [%] | normalised response (MDA-MB-436 [2]) [%] | normalised response (HCC1599 [3]) [%] | normalised response (CAL-148 [4]) [%] | normalised response (MDA-MB-468 [5]) [%] | normalised response (HCC1937 [6]) [%] | normalised response (HCC1143 [7]) [%] | normalised response (CAL-120 [8]) [%] | normalised response (BT-474 [9]) [%] | normalised response (MFM-223 [10]) [%] | normalised response (CAL-51 [11]) [%] | normalised response (HDQ-P1 [12]) [%] | normalised response (Hs578T [13]) [%] | normalised response (BT-549 [14]) [%] | normalised response (MDA-MB-231 [15]) [%] | normalised response (DU-4475 [16]) [%] | normalised response (MDA-MB-453 [17]) [%] | normalised response (CAL-85-1 [18]) [%] | normalised response (MDA-MB-436 [19]) [%] | normalised response (HCC1599 [20]) [%] | normalised response (CAL-148 [21]) [%] | normalised response (MDA-MB-468 [22]) [%] | normalised response (HCC1937 [23]) [%] | normalised response (HCC1143 [24]) [%] | normalised response (CAL-120 [25]) [%] | normalised response (BT-474 [26]) [%] | normalised response (MFM-223 [27]) [%] | normalised response (CAL-51 [28]) [%] | normalised response (HDQ-P1 [29]) [%] | normalised response (SK-BR-3) [%] | normalised response (Hs578T [30]) [%] | normalised response (BT-549 [31]) [%] | normalised response (MDA-MB-231 [32]) [%] | normalised response (DU-4475 [33]) [%] | normalised response (MCF-10A [34]) [%] | normalised response (MDA-MB-453 [35]) [%] | normalised response (MCF-10A [36]) [%] |
| --- | --- | --- | --- | --- | --- | --- | --- | --- | --- | --- | --- | --- | --- | --- | --- | --- | --- | --- | --- | --- | --- | --- | --- | --- | --- | --- | --- | --- | --- | --- | --- | --- | --- | --- | --- | --- | --- |
| CNC(=O)c1cc(Oc2ccc(NC(=O)Nc3cc(C(C)(C)C)nn3-c3ccc4ncccc4c3)c(F)c2)ccn1 [Rebastinib] (100 nM) | 103 | 97.3 | 99.2 | 84 | 118 | 112 | 113 | 101 | 98.6 | 95.3 | 105 | 94.4 | 98.8 | 95 | 90.2 | 103 | 101 | 101 | 110 | 110 | 105 | 113 | 108 | 110 | 92.2 | 97 | 65.3 | 120 | 114 | 104 | 114 | 111 | 90 | 101 | 119 | 101 |  |
| COc1cc2nccc(Oc3ccc(NC(=O)Nc4cc(C)on4)c(Cl)c3)c2cc1OC [Tivozanib] (1000 nM) | 95.5 | 70.6 | 104 | 104 | 138 | 134 | 89.3 | 96.6 | 101 | 102 | 87.7 | 92.8 | 93 | 129 | 110 | 96.5 |  | 103 | 101 | 92.9 | 103 | 89.5 | 95.2 | 95.9 | 93.1 | 81.3 | 60.3 | 90.8 | 98.6 | 88.5 | 104 | 111 | 89 | 101 | 99.2 | 87.7 | 105 |
